Reference: PubChem BioAssay (NCI)
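GI50 = concentration required for 50% inhibition of growth. TGI is the concentration that stops growth completely.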

Assays:
Experiment in all cases: NCI anticancer screen, dose series, 384-well format
[1] = tested on: PC-3 prostate
[2] = tested on: UACC-62 melanoma
[3] = tested on: TK-10 renal
[4] = tested on: SK-OV-3 ovarian
[5] = tested on: MDA-MB-231 breast
[6] = tested on: NCI-H226 lung
[7] = tested on: OVCAR-4 ovarian
[8] = tested on: 786-0 renal
[9] = tested on: HCC-2998 colon
[10] = tested on: HOP-92 NSCLC
[11] = tested on: T-47D breast
[12] = tested on: SF-295 CNS
[13] = tested on: UO-31 renal
[14] = tested on: LOX IMVI melanoma
[15] = tested on: COLO 205 colon
[16] = tested on: UACC-257 melanoma
[17] = tested on: M14 melanoma
[18] = tested on: RPMI-8226 leukemia
[19] = tested on: NCI-H460 NSCLC
[20] = tested on: KM12 colon
[21] = tested on: HS 578T breast
[22] = tested on: SW-620 colon
[23] = tested on: IGROV1 ovarian
[24] = tested on: SN12C renal
[25] = tested on: OVCAR-5 ovarian
[26] = tested on: K-562 leukemia
[27] = tested on: OVCAR-8 ovarian
[28] = tested on: MDA-MB-435 melanoma
[29] = tested on: CCRF-CEM leukemia

Cn1cc(-c2cnc3ccc4ccc(CS(=O)(=O)NCc5ccccn5)cc4c(=O)c3c2)cn1
GI50 [1]: 20.5 µM
TGI [1]: 42.5 µM
GI50 [2]: 12 µM
TGI [2]: 24.5 µM
GI50 [3]: 20.8 µM
TGI [3]: 51.5 µM
GI50 [4]: 13.4 µM
TGI [4]: 31.3 µM
GI50 [5]: 15.2 µM
TGI [5]: 30.4 µM
GI50 [6]: 13.7 µM
TGI [6]: 30.5 µM
GI50 [7]: 14.9 µM
TGI [7]: 29.6 µM
GI50 [8]: 37.6 µM
TGI [8]: > 100 µM
GI50 [9]: 15 µM
TGI [9]: 28.7 µM
GI50 [10]: 14.7 µM
TGI [10]: 34.1 µM
GI50 [11]: 15.5 µM
TGI [11]: 30.5 µM
GI50 [12]: 13.3 µM
TGI [12]: 33.8 µM
GI50 [13]: 35.9 µM
TGI [13]: > 100 µM
GI50 [14]: 16.3 µM
TGI [14]: 30.2 µM
GI50 [15]: 34.1 µM
TGI [15]: > 100 µM
GI50 [16]: 18.3 µM
TGI [16]: 32.3 µM
GI50 [17]: 12.9 µM
TGI [17]: 26.1 µM
GI50 [18]: 5.18 µM
TGI [18]: 17.5 µM
GI50 [19]: 15.1 µM
TGI [19]: 28.9 µM
GI50 [20]: 11.4 µM
TGI [20]: 26.6 µM
GI50 [21]: 14.4 µM
TGI [21]: 33.3 µM
GI50 [22]: 14 µM
TGI [22]: 28.8 µM
GI50 [23]: 16.7 µM
TGI [23]: 33 µM
GI50 [24]: 19.9 µM
TGI [24]: 46.4 µM
GI50 [25]: 25.4 µM
TGI [25]: 49.3 µM
GI50 [26]: 5.42 µM
TGI [26]: 17.8 µM
GI50 [27]: 16.2 µM
TGI [27]: 36.5 µM
GI50 [28]: 3.77 µM
TGI [28]: 12.2 µM
GI50 [29]: 7.51 µM
TGI [29]: 19.8 µM
